# Assay results: ChEMBL document CHEMBL5505993, “Identification of a ferritinophagy inducer via sinomenine modification for the treatment of colorectal cancer” (Eur J Med Chem, 2024)
# Active and inactive are the calls of the source. The calls are words filed in the database; no cut-off is given here.
# Tests used:
# [1] = test system: HCT-116; assay: Cytotoxicity against human HCT-116 cells assessed as inhibition of cell growth incubated for 48 hrs by CCK-8 assay; format: functional, cell-based; conditions: HCT-116, 48 h
# [2] = test system: HCT-116; assay: Inhibition of colony formation in human HCT-116 cells incubated for 12 hrs by crystal violet staining based analysis; format: functional, cell-based
# [3] = test system: HCT-116; assay: Induction of ferroptosis in human HCT-116 cells assessed as increase in intracellular lipid ROS accumulation at 5 to 20 uM incubated for 12 hrs by C11 BODIPY probe based fluorescence microscopic analysis; format: functional, cell-based; conditions: dose 5-20 µM
# [4] = test system: HCT-116; assay: Induction of ferroptosis in human HCT-116 cells assessed as increase in 4-HNE level in presence of deferoxamine mesylate at 20 uM by ELISA; format: functional, cell-based
# [5] = test system: HCT-116; assay: Induction of ferroptosis in human HCT-116 cells assessed as increase in 4-HNE level in presence of Ferrostatin-1 at 20 uM by ELISA; format: functional, cell-based
# [6] = test system: HCT-116; assay: Induction of ferroptosis in human HCT-116 cells assessed as effect on GPX4 protein expression at 5 to 20 uM incubated for 12 hrs by Western blotting analysis; format: functional, cell-based; conditions: dose 5-20 µM
# [7] = test system: HCT-116; assay: Induction of ferroptosis in human HCT-116 cells assessed as effect on p53 protein expression at 5 to 20 uM incubated for 12 hrs by Western blotting analysis; format: functional, cell-based; conditions: dose 5-20 µM
# [8] = test system: HCT-116; assay: Induction of ferroptosis in human HCT-116 cells assessed as effect on SLC7A11 protein expression at 5 to 20 uM incubated for 12 hrs by Western blotting analysis; format: functional, cell-based; conditions: dose 5-20 µM
# [9] = test system: HCT-116; assay: Induction of ferroptosis in human HCT-116 cells assessed as effect on AIFM2 protein expression at 5 to 20 uM incubated for 12 hrs by Western blotting analysis; format: functional, cell-based; conditions: dose 5-20 µM
# [10] = test system: HCT-116; assay: Induction of ferroptosis in human HCT-116 cells assessed as increase in intracellular ferrous ion level incubated for 12 hrs by ferroOrange probe based flow cytometric analysis; format: functional, cell-based
# [11] = test system: HCT-116; assay: Induction of ferroptosis in human HCT-116 cells assessed as increase in intracellular ferrous ion level incubated for 12 hrs by ferroOrange probe based confocal fluorescence microscopic analysis; format: functional, cell-based
# [12] = test system: HCT-116; assay: Induction of ferroptosis in human HCT-116 cells assessed as increase in intracellular ferrous ion level at 20 uM incubated for 12 hrs in presence of ferroptosis inhibitor, Ferrostatin-1 by ferroOrange probe based flow cytometric analysis; format: functional, cell-based
# [13] = test system: HCT-116; assay: Induction of ferroptosis in human HCT-116 cells assessed as increase in ferrous ion level in lysosomes at 20 uM incubated for 12 hrs by Lyso tracker red staining based confocal fluorescence microscopic analysis; format: functional, cell-based
# [14] = test system: HCT-116; assay: Induction of autophagy in human HCT-116 cells transfected with mRFP-GFP-LC3B assessed as formation of autophagosomes by measuring reduction in GFP to mRFP fluorescence ratio at 5 to 20 uM incubated for 12 hrs by Lyso tracker red staining based confocal fluorescence microscopic analysis; format: functional, cell-based; conditions: dose 5-20 µM
# [15] = test system: HCT-116; assay: Induction of autophagy in human HCT-116 cells assessed as increase in intracellular ferrous ion level at 20 uM incubated for 12 hrs in presence of autophagy inhibitor, Bafilomycin A1 by Lyso tracker green staining based confocal microscopic analysis; format: functional, cell-based
# [16] = test system: HCT-116; assay: Induction of autophagy in human HCT-116 cells assessed as increase in 4-HNE level at 20 uM incubated for 12 hrs by ELISA; format: functional, cell-based
# [17] = test system: HCT-116; assay: Induction of autophagy in human HCT-116 cells assessed as increase in 4-HNE level at 20 uM incubated for 12 hrs in presence of autophagy inhibitor, Bafilomycin A1 by ELISA; format: functional, cell-based
# [18] = test system: HCT-116; assay: Induction of ferritin autophagy in human HCT-116 cells assessed as upregulation of NCOA4 protein expression at 5 to 20 uM incubated for 12 hrs by Western blotting analysis; format: functional, cell-based; conditions: dose 5-20 µM
# [19] = test system: HCT-116; assay: Induction of ferritin autophagy in human HCT-116 cells assessed as upregulation of ratio of LC3B-II to LC3B-I protein expression at 5 to 20 uM incubated for 12 hrs by Western blotting analysis; format: functional, cell-based; conditions: dose 5-20 µM
# [20] = test system: HCT-116; assay: Induction of ferritin autophagy in human HCT-116 cells assessed as upregulation of FTH1 protein expression at 20 uM incubated for 12 hrs in presence of autophagy inhibitor, Bafilomycin A1 by Western blotting analysis; format: functional, cell-based
# [21] = test system: HCT-116; assay: Induction of ferritin autophagy in human HCT-116 cells assessed as upregulation of NCOA4 protein expression at 20 uM incubated for 12 hrs by immunoprecipitation assay; format: functional, cell-based
# [22] = test system: HCT-116; assay: Antitumor activity against human HCT-116 cells xenografted in BALB/c mouse assessed as reduction in tumor weight at 30 mg/kg,ip administrated daily for 14 days; format: functional, organism-based; conditions: time 14.0 day
# [23] = Toxicity in BALB/c mouse xenografted with human HCT-116 cells assessed as change in body weight at 30 mg/kg,ip administrated daily for 14 days; format: organism-based; conditions: in vivo, 336 h, time 14 day
# [24] = test system: HCT-116; assay: Antitumor activity against human HCT-116 cells xenografted in BALB/c mouse assessed as reduction in tumor density at 60 mg/kg,ip administrated daily for 14 days by hematoxylin and eosin staining based microscopic analysis; format: functional, organism-based; conditions: time 14.0 day
# [25] = test system: HCT-116; assay: Antitumor activity against human HCT-116 cells xenografted in BALB/c mouse assessed as presence of pyknotic nucleus at 30 mg/kg,ip administrated daily for 14 days by hematoxylin and eosin staining based microscopic analysis; format: functional, organism-based; conditions: time 14.0 day
# [26] = test system: HCT-116; assay: Antitumor activity against human HCT-116 cells xenografted in BALB/c mouse assessed as tumor cell rupture at 60 mg/kg,ip administrated daily for 14 days by hematoxylin and eosin staining based microscopic analysis; format: functional, organism-based; conditions: time 14.0 day
# [27] = test system: HCT-116; assay: Antitumor activity against human HCT-116 cells xenografted in BALB/c mouse assessed as increase in FTH1 expression at 30 mg/kg,ip administrated daily for 14 days by immunohistochemistry; format: functional, organism-based; conditions: time 14.0 day
# [28] = test system: HCT-116; assay: Antitumor activity against human HCT-116 cells xenografted in BALB/c mouse assessed as increase in LC3B expression at 30 mg/kg,ip administrated daily for 14 days by immunohistochemistry; format: functional, organism-based; conditions: time 14.0 day
# [29] = test system: HCT-116; assay: Antitumor activity against human HCT-116 cells xenografted in BALB/c mouse assessed as increase in 4-HNE level in tumor at 30 mg/kg,ip administrated daily for 14 days by ELISA; format: functional, organism-based; conditions: time 14.0 day
# [30] = Toxicity in BALB/c mouse xenografted with human HCT-116 cells assessed as histopathological changes in liver at 30 mg/kg,ip administrated daily for 14 days by hematoxylin and eosin staining based microscopic analysis; format: organism-based; conditions: in vivo, 336 h, time 14 day
# [31] = Toxicity in BALB/c mouse xenografted with human HCT-116 cells assessed as histopathological changes in liver at 60 mg/kg,ip administrated daily for 14 days by hematoxylin and eosin staining based microscopic analysis; format: organism-based; conditions: in vivo, 336 h, time 14 day
# [32] = Toxicity in BALB/c mouse xenografted with human HCT-116 cells assessed as histopathological changes in lung at 30 mg/kg,ip administrated daily for 14 days by hematoxylin and eosin staining based microscopic analysis; format: organism-based; conditions: in vivo, 336 h, time 14 day
# [33] = Toxicity in BALB/c mouse xenografted with human HCT-116 cells assessed as histopathological changes in kidney at 30 mg/kg,ip administrated daily for 14 days by hematoxylin and eosin staining based microscopic analysis; format: organism-based; conditions: in vivo, 336 h, time 14 day
# [34] = Toxicity in BALB/c mouse xenografted with human HCT-116 cells assessed as histopathological changes in kidney at 60 mg/kg,ip administrated daily for 14 days by hematoxylin and eosin staining based microscopic analysis; format: organism-based; conditions: in vivo, 336 h, time 14 day
compound,measurement,setting,value
C=C(Cl)C(=O)NCCCCCCCCCCCC(=O)Oc1c(OC)ccc2c1[C@@]13CCN(C)[C@@H](C2)[C@H]1C=C(OC)C(=O)C3,IC50,[1],5.87 µM
same,inhibition,[2],Dose-Dependent Effect
same,Activity,[3],Active
same,Activity,[4],inactive
same,Activity,[5],inactive
same,Activity,[6],inactive
same,Activity,[7],inactive
same,Activity,[8],inactive
same,Activity,[9],inactive
same,Activity,[10],Dose-Dependent Effect
same,Activity,[11],Dose-Dependent Effect
same,Activity,[12],inactive
same,Activity,[13],Active
same,Activity,[14],Active
same,Activity,[15],inactive
same,Activity,[16],Active
same,Activity,[17],inactive
same,Activity,[18],inactive
same,Activity,[19],Active
same,Activity,[20],inactive
same,Activity,[21],inactive
same,Activity,[22],Active
same,Activity,[23],Non-Toxic
same,Activity,[24],Active
same,Activity,[25],Active
same,Activity,[26],Active
same,Activity,[27],Active
same,Activity,[28],Active
same,Activity,[29],Active
same,Activity,[30],Non-Toxic
same,Activity,[31],Non-Toxic
same,Activity,[32],Non-Toxic
same,Activity,[33],Non-Toxic
same,Activity,[34],Non-Toxic
